# Test results: patent publication US9029337B2, “Modulation of factor 7 expression” (Isis Pharmaceuticals, Inc., priority 2007, dated 2015)
# Strand notation (5' to 3'): a small letter for the sugar, then the base; units joined by * are phosphorothioate-linked, units joined directly phosphodiester-linked; [ ] holds rarer units or linkages, { } end groups; capitals alone tell only the bases. e = 2'-O-(2-methoxyethyl) (MOE); [5mC] = 5-methylcytosine; d = 2'-deoxy (DNA)
# Tested on: human Factor 7 mRNA
# Assay: Antisense inhibition of human Factor 7 mRNA in HepB3 cells, 50 nM antisense oligonucleotide, lipofectin
# Assay type: cell-based
# Conditions: Table 1, 50 nM, lipofectin, approximately 24 hours, relative to untreated control cells
# Experimental: Antisense oligonucleotides targeted to a Factor 7 nucleic acid were tested for their effects on Factor 7 mRNA in vitro. Cultured HepB3 cells at a density of 4,000 cells per well were transfected using lipofectin reagent with 50 nM antisense oligonucleotide. After a treatment period of approximately 24 hours, RNA was isolated from the cells and Factor 7 mRNA levels were measured by real-time RT-PCR, as described herein. Factor 7 mRNA levels were adjusted according to total RNA content as measured by RIBOGREEN®. Results are presented as percent inhibition of Factor 7, relative to untreated control cells.
# (§1) Antisense oligonucleotides targeted to a Factor 7 nucleic acid were designed and tested for their effects on Factor 7 mRNA in vitro. Certain antisense oligonucleotides from Table 3 were also retested for their effects on Factor 7 mRNA in vitro. Cultured HepB3 cells at a density of 4,000 cells per well were transfected using lipofectin reagent with 50 nM antisense oligonucleotide. After a treatment period of approximately 24 hours, RNA was isolated from the cells and Factor 7 mRNA levels were measured by real-time RT-PCR, as described herein. Human Factor 7 primer probe set RTS 2927 was used to measure mRNA levels. Factor 7 mRNA levels were adjusted according to total RNA content as measured by RIBOGREEN®. Results are presented as percent inhibition of Factor 7, relative to untreated control.
# as §1, with “tested” for “tested for their effects on Factor 7 mRNA in vitro. Certain antisense oligonucleotides from Table 3 were also retested”
# These gapmers were designed by creating gapmers shifted slightly upstream and downstream (i.e. “microwalk”) of the original gapmers from Table 7. Gapmers were also created with various motifs, e.g. 5-10-5 MOE, 3-14-3 MOE, and 2-13-5 MOE. These gapmers were tested in vitro. Cultured HepB3 cells at a density of 4,000 cells per well were transfected using lipofectin reagent with 50 nM antisense oligonucleotide. After a treatment period of approximately 24 hours, RNA was isolated from the cells and Factor 7 mRNA levels were measured by real-time RT-PCR. Factor 7 mRNA levels were adjusted according to total RNA content, as measured by RIBOGREEN®. Results are presented as percent inhibition of Factor 7, relative to untreated control cells.
row,Substance,% Inhibition [%]
1,407953 (antisense eA*e[5mC]*eA*eT*e[5mC]*d[5mC]*dA*dA*dT*dT*d[5mC]*d[5mC]*dA*d[5mC]*dA*eG*eG*eA*eT*e[5mC]) [compound 407953],20
2,407909 (antisense e[5mC]*e[5mC]*eA*eT*e[5mC]*d[5mC]*dG*dA*dG*dT*dA*dG*d[5mC]*d[5mC]*dG*eG*e[5mC]*eA*e[5mC]*eA) [compound 407909],77
3,407611 (antisense eT*e[5mC]*eT*e[5mC]*eA*d[5mC]*dA*dG*dT*dT*d[5mC]*d[5mC]*dG*dG*d[5mC]*e[5mC]*e[5mC]*eT*e[5mC]*eG) [compound 407611],82
4,407904 (antisense eG*eA*eA*eA*e[5mC]*dA*dG*dT*dG*dG*dG*d[5mC]*d[5mC]*dG*d[5mC]*eG*eG*eA*eG*eA) [compound 407904],83
5,407930 (antisense e[5mC]*eA*eA*eT*eG*dA*dA*dG*dG*d[5mC]*dA*dG*dA*dG*d[5mC]*eA*eG*e[5mC]*eA*eG) [compound 407930],70
6,407922 (antisense eT*e[5mC]*eG*eA*e[5mC]*dG*d[5mC]*dA*dG*d[5mC]*d[5mC]*dT*dT*dG*dG*e[5mC]*eT*eT*eT*e[5mC]) [compound 407922],82
7,407914 (antisense e[5mC]*e[5mC]*eA*eG*e[5mC]*dT*dG*dA*d[5mC]*dG*dA*dT*dG*d[5mC]*d[5mC]*e[5mC]*eG*eT*e[5mC]*eA) [compound 407914],82
8,407622 (antisense eT*e[5mC]*eA*e[5mC]*e[5mC]*dA*dA*d[5mC]*dA*dA*d[5mC]*dA*dG*dG*dA*e[5mC]*e[5mC]*eT*eG*e[5mC]) [compound 407622],55
9,407596 (antisense eG*eA*eG*eG*e[5mC]*d[5mC]*d[5mC]*d[5mC]*dG*dG*d[5mC]*dT*dT*d[5mC]*d[5mC]*eA*e[5mC]*eG*eG*e[5mC]) [compound 407596],61
10,407929 (antisense eG*e[5mC]*eA*eG*eA*dG*d[5mC]*dA*dG*d[5mC]*dA*dG*d[5mC]*d[5mC]*dT*eG*eA*eG*eG*e[5mC]) [compound 407929],53
11,407912 (antisense e[5mC]*e[5mC]*e[5mC]*eG*eG*dT*dA*dG*dT*dG*dG*dG*dT*dG*dG*e[5mC]*eA*eT*eG*eT) [compound 407912],46
12,407651 (antisense eA*eG*e[5mC]*e[5mC]*eT*d[5mC]*dA*dA*dA*d[5mC]*dA*dT*d[5mC]*dT*dA*eT*e[5mC]*eA*eA*eA) [compound 407651],32
13,407957 (antisense eG*eG*e[5mC]*e[5mC]*eT*dG*dG*dG*dA*dA*d[5mC]*dT*dT*dG*d[5mC]*eA*eT*eT*eT*eA) [compound 407957],52
14,407913 (antisense eG*eA*eT*eG*e[5mC]*d[5mC]*d[5mC]*dG*dT*d[5mC]*dA*dG*dG*dT*dA*e[5mC]*e[5mC]*eA*e[5mC]*eG) [compound 407913],74
15,407918 (antisense e[5mC]*e[5mC]*eT*eG*eG*dT*dG*dT*dA*d[5mC]*dA*d[5mC]*d[5mC]*d[5mC]*d[5mC]*eA*eA*eA*eG*eT) [compound 407918],72
16,407894 (antisense eG*eT*eT*e[5mC]*e[5mC]*dG*dG*d[5mC]*d[5mC]*d[5mC]*dT*d[5mC]*dG*dA*dA*eG*eG*e[5mC]*eA*eG) [compound 407894],77
17,407903 (antisense e[5mC]*e[5mC]*eG*e[5mC]*eG*dG*dA*dG*dA*d[5mC]*d[5mC]*dA*d[5mC]*d[5mC]*d[5mC]*eA*eG*eA*eT*eG) [compound 407903],98

# Same assay, conditions: Table 6, 50 nM, lipofectin, approximately 24 hours
row,Substance,% Inhibition [%]
1,422273 (antisense eT*eA*d[5mC]*dT*dG*dA*dG*d[5mC]*dG*d[5mC]*dG*dG*dA*dA*dG*eA*eA*eG*eG*eG) [compound 422273],0
2,422129 (antisense eG*eT*eT*eA*e[5mC]*dT*dG*dA*dG*d[5mC]*dG*d[5mC]*dG*dG*dA*eA*eG*eA*eA*eG) [compound 422129],45
3,422192 (antisense eG*eA*eG*d[5mC]*dG*d[5mC]*dG*dG*dA*dA*dG*dA*dA*dG*dG*dG*dA*e[5mC]*eG*eG) [compound 422192],27
4,422194 (antisense e[5mC]*eT*eG*dA*dG*d[5mC]*dG*d[5mC]*dG*dG*dA*dA*dG*dA*dA*dG*dG*eG*eA*e[5mC]) [compound 422194],11
5,422118 (antisense e[5mC]*eG*eG*eA*eA*dG*dA*dA*dG*dG*dG*dA*d[5mC]*dG*dG*eA*eA*eG*eG*eT) [compound 422118],15

# Same assay, conditions: Table 13 (microwalk), 50 nM, lipofectin, approximately 24 hours
row,Substance,% Inhibition [%]
1,422151 (antisense eT*eG*e[5mC]*dA*dT*dG*dG*dT*dG*dA*dT*dG*d[5mC]*dT*dT*d[5mC]*dT*eG*eA*eA) [compound 422151],68

# Same assay, conditions: gapmers targeted to nucleobases 4868 to 4899 of SEQ ID NO: 1, Table 8
row,Substance,% Inhibition of human Factor 7 mRNA levels [%]
1,422216 (antisense eA*eG*eT*dT*d[5mC]*dT*dG*d[5mC]*dA*dG*dG*dA*dG*d[5mC]*dG*dG*d[5mC]*e[5mC]*eT*eA) [compound 422216],68
2,422224 (antisense eG*eG*eA*dG*d[5mC]*d[5mC]*d[5mC]*dG*dA*dG*dT*dT*d[5mC]*dT*dG*d[5mC]*dA*eG*eG*eA) [compound 422224],62

# Same assay, conditions: lipofectin, 50 nM antisense oligonucleotide, approximately 24 hours, Factor 7 mRNA by real-time RT-PCR (RTS 2927), relative to untreated control
row,Substance,% Inhibition [%]
1,416453 (antisense eG*eA*eT*eT*eT*dT*dG*dT*d[5mC]*dG*dA*dA*dA*d[5mC]*dA*eG*eT*eG*eG*eG) [compound 416453],45
2,416554 (antisense eA*eA*eA*eG*eA*dT*d[5mC]*d[5mC]*d[5mC]*dA*d[5mC]*d[5mC]*dT*d[5mC]*dA*eA*eA*eG*eA*eG) [compound 416554],7
3,416427 (antisense e[5mC]*e[5mC]*e[5mC]*eT*eG*dA*dA*dG*d[5mC]*d[5mC]*d[5mC]*dA*dA*dG*d[5mC]*eA*eG*eA*eA*eG) [compound 416427],5
4,416428 (antisense e[5mC]*eT*eG*eG*eG*dT*dT*dA*d[5mC]*dG*dA*dA*dG*dA*d[5mC]*eT*eG*e[5mC]*eA*eG) [compound 416428],11
5,416564 (antisense eG*e[5mC]*e[5mC]*eA*e[5mC]*dT*d[5mC]*dA*d[5mC]*dA*dG*dA*dA*dA*dG*e[5mC]*eT*eG*eG*eA) [compound 416564],0
6,416512 (antisense eG*eA*e[5mC]*eG*eA*d[5mC]*d[5mC]*dT*dT*dT*dG*d[5mC]*dT*dG*dG*eG*eA*eG*eG*eA) [compound 416512],43
7,416489 (antisense eG*eT*eG*e[5mC]*eA*dG*d[5mC]*dT*dT*dG*d[5mC]*d[5mC]*dA*dG*dG*eT*e[5mC]*e[5mC]*eT*e[5mC]) [compound 416489],38
8,416465 (antisense e[5mC]*eA*e[5mC]*eT*eG*dT*d[5mC]*d[5mC]*d[5mC]*d[5mC]*d[5mC]*dT*dT*dG*d[5mC]*eA*eG*eG*eA*eG) [compound 416465],51

# Same assay, conditions: oligonucleotides targeted to nucleobases 11830 to 11869 of SEQ ID NO: 1 (Table 9)
row,Substance,% Inhibition (human Factor 7 mRNA levels) [%]
1,422164 (antisense eG*eA*eG*dA*d[5mC]*dA*dA*dT*dG*dG*dT*d[5mC]*dA*dG*dG*dG*d[5mC]*eT*eG*eG) [compound 422164],64
2,422170 (antisense eG*e[5mC]*eT*dG*dA*dG*dG*dA*dG*dA*d[5mC]*dA*dA*dT*dG*dG*dT*e[5mC]*eA*eG) [compound 422170],28
3,422099 (antisense eA*eG*eG*eA*eG*dA*d[5mC]*dA*dA*dT*dG*dG*dT*d[5mC]*dA*eG*eG*eG*e[5mC]*eT) [compound 422099],48

# Same assay, conditions: oligonucleotides targeted to nucleobases 13760 to 13789 of SEQ ID NO: 1 (Table 10)
row,Substance,% Inhibition (human Factor 7 mRNA levels) [%]
1,422257 (antisense e[5mC]*e[5mC]*dA*d[5mC]*d[5mC]*d[5mC]*dG*d[5mC]*d[5mC]*dG*dG*d[5mC]*dT*d[5mC]*dT*eG*e[5mC]*eT*e[5mC]*eA) [compound 422257],65
2,422108 (antisense e[5mC]*e[5mC]*eG*e[5mC]*e[5mC]*dG*dG*d[5mC]*dT*d[5mC]*dT*dG*d[5mC]*dT*d[5mC]*eA*eT*e[5mC]*e[5mC]*e[5mC]) [compound 422108],69
